{
  "source": "patent US20200170256A1",
  "about": "“Amonia Based Piscicide” (priority 2018, published 2020)",
  "key": {"mitochondrial complex I": {"tested_on": "mitochondrial complex I", "conditions": "2011 NIH study; cited from earlier work"}, "fathead minnows": {"tested_on": "fathead minnows", "assay": "fathead minnows exposed to the piscicide in 100-gallon laboratory tanks (effective amount of ammonium chloride)", "format": "in vivo", "procedure": "During each replicate trial, ten fathead minnows were exposed to the pisticide over a four hour period in 100-gallon laboratory tanks at 20° C."}},
  "data": [
    {"compound": "C=C(C)[C@H]1Cc2c(ccc3c2O[C@@H]2COc4cc(OC)c(OC)cc4[C@@H]2C3=O)O1", "note": "[Rotenone]", "values": [
      {"measurement": "role in inhibiting mitochondrial complex I among 31 tested piscicides", "setting": "mitochondrial complex I", "value": "greatest role in inhibiting mitochondrial complex I"}
    ]},
    {"compound": "Cl.N", "note": "[ammonium chloride]", "values": [
      {"measurement": "effective amount of ammonium chloride alone (approximate same effect)", "setting": "fathead minnows", "value": "0.6-0.8 grams per gallon"}
    ]}
  ]
}
